Drawing on patent publication US8883965B2, “Compounds” (Ferring B.V., priority 2006, dated 2014), this text covers EC50 for seven compounds.

The structures appear in SMILES notation. Positions of bridges follow the written chain, without caps; N, C: chain ends. Non-standard residues stand in square brackets, D forms with d. Residues, ends and D or L forms follow the SMILES beside them. Ala(cPent) = N[C@@H](CC1CCCC1)C(=O)O; Orn(iPr) = CC(C)NCCC[C@H](N)C(=O)O; Cha = N[C@@H](CC1CCCCC1)C(=O)O; Orn = NCCC[C@H](N)C(=O)O; Dab = NCC[C@H](N)C(=O)O; Ac4c = NC1(C(=O)O)CCC1

The target of the experiment is T1, hV1a receptor (Homo sapiens, UniProt P37288).
T1 construct: expressed in transfected cells; host or cells: HEK-293
T1 sequence (P37288 whole entry): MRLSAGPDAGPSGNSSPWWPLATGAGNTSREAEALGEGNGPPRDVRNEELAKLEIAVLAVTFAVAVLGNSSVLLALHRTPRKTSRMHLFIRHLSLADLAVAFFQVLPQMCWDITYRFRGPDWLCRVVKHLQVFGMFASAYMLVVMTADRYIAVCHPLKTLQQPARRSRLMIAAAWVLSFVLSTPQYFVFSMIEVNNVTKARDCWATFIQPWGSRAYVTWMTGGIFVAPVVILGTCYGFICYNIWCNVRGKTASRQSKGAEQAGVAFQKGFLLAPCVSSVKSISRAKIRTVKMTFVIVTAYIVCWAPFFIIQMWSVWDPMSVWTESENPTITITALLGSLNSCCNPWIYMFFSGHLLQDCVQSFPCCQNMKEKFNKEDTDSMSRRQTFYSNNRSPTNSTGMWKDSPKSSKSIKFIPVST
The experiment can be described thus: In vitro receptor assay: transcriptional reporter (luciferase) assay of agonist activity in HEK-293 cells transiently transfected with hV1a receptor. In kind it is cell-based. The settings on record: hV1a receptor in HEK-293 cells, 5 hours exposure, geometric mean of at least three independent experiments, nanomol/L, read-out: EC50 (median effective concentration). The procedure: Agonist activity of compounds on the hV1a receptor was determined in a transcriptional reporter assay by transiently transfecting a hV1a receptor expression DNA into HEK-293 cells in concert with a reporter DNA containing intracellular calcium responsive promoter elements regulating expression of firefly luciferase. See Boss, V., Talpade, D. J., Murphy, T. J. J. Biol. Chem. 1996, May 3; 271(18), 10429-10432 for further guidance on this assay.
The EC50 value given is the geometric mean expressed in nanomol/L (nM).
Regarding `CC[C@H](C)[C@@H]1NC(=O)[C@H](CC2CCCC2)NC(=O)[C@@H](N)CSSC[C@@H](C(=O)N2CCC[C@H]2C(=O)N[C@@H](CCN)C(=O)NCC(N)=O)NC(=O)[C@H](CC(N)=O)NC(=O)[C@H](CCC(N)=O)NC1=O` [compound 2] (H-C[Ala(cPent)]IQNCP[Dab]G-NH2; disulfide 1-6), the EC50 stood at 0.8 nM.
Regarding `CC[C@H](C)[C@@H]1NC(=O)[C@H](CC2CCCCC2)NC(=O)[C@@H](N)CSSC[C@@H](C(=O)N2CCC[C@H]2C(=O)N[C@@H](CCN)C(=O)NCC(N)=O)NC(=O)[C@H](CC(N)=O)NC(=O)[C@H](CCC(N)=O)NC1=O` [compound 1] (H-C[Cha]IQNCP[Dab]G-NH2; disulfide 1-6; N-terminus and C-terminus assumed), the EC50 is 0.27 nM.
In the case of `NCCCC[C@H](NC(=O)[C@@H]1CCCN1C(=O)[C@@H]1CSSC[C@H](NC(=O)CNC(=O)CNC(=O)CN)C(=O)N[C@@H](Cc2ccc(O)cc2)C(=O)N[C@@H](Cc2ccccc2)C(=O)N[C@@H](CCC(N)=O)C(=O)N[C@@H](CC(N)=O)C(=O)N1)C(=O)NCC(N)=O` [terlipressin, reference compound] (H-GGGCYFQNCPKG-NH2; disulfide 4-9), the EC50 was 82.1 nM.
Regarding `CC[C@H](C)[C@@H]1NC(=O)[C@H](CC2CCCC2)NC(=O)[C@@H](N)CSSC[C@@H](C(=O)N2CCC[C@H]2C(=O)N[C@@H](CCN)C(=O)NCC(N)=O)NC(=O)[C@H](CC(N)=O)NC(=O)[C@H](CC(N)=O)NC1=O` [compound 10] (H-C[Ala(cPent)]INNCP[Dab]G-NH2; disulfide 1-6), the EC50 was 17.8 nM.
Under `CC[C@H](C)[C@@H]1NC(=O)C2(CCC2)NC(=O)[C@@H](N)CSSC[C@@H](C(=O)N2CCC[C@H]2C(=O)N[C@@H](CCN)C(=O)NCC(N)=O)NC(=O)[C@H](CC(N)=O)NC(=O)[C@H](CCC(N)=O)NC1=O` [compound 3, [AcBuc^2, Dbu^8]VT] (H-C[Ac4c]IQNCP[Dab]G-NH2; disulfide 1-6) stands 0.94 nM; under `CC[C@H](C)[C@@H]1NC(=O)[C@H](CC2CCCCC2)NC(=O)[C@@H](N)CSSC[C@@H](C(=O)N2CCC[C@H]2C(=O)N[C@@H](CCCNC(C)C)C(=O)NCC(N)=O)NC(=O)[C@H](CC(N)=O)NC(=O)[C@H](CC(N)=O)NC1=O` [compound 4, [Cha^2, Asn^4, Orn(i-Pr)^6]VT] (H-C[Cha]INNCP[Orn(iPr)]G-NH2; disulfide 1-6), 0.75 nM.
As to `CC[C@H](C)[C@@H]1NC(=O)[C@H](CC2CCCCC2)NC(=O)[C@@H](N)CSSC[C@@H](C(=O)N2CCC[C@H]2C(=O)N[C@@H](CCCN)C(=O)NCC(N)=O)NC(=O)[C@H](CC(N)=O)NC(=O)[C@H](CC(N)=O)NC1=O` [compound 11] (H-C[Cha]INNCP[Orn]G-NH2; disulfide 1-6), the EC50 worked out at 9.93 nM.
